Laboratory results: US20260008818A1, “CYCLIC PEPTIDE OR SALT THEREOF, AND USES THEREOF” (FUJIFILM Corporation, priority 2023, published 2026)
Bridge positions count the residues as written; N and C are the ends. Ends that are not written are not given here. COCH2 = acetyl group that carries the bridge

System: Recombinant Human FGFR1 alpha (IIIc) Fc Chimera Protein
Experiment: Binding affinity of enzymatically synthesized cyclic peptide to FGFR by ELISA
Conditions: luminescence signal at reaction concentration 10 nmol/L, SEQ ID NO: 39 standardized to 1, enzyme synthesis product
Method in brief: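 Graded A–D from luminescence at 10 nmol/L peptide, expressed relative to SEQ ID NO: 39 after subtracting wells lacking receptor. Read-out used anti-Myc antibody (2 h, RT) with chemiluminescent substrate, following 3 h RT binding of peptide to immobilized FGFR1α(IIIc)-Fc, 5 ng per well.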

| Substance | Evaluation result of binding affinity to FGFR |
| --- | --- |
| 210 (HCSYERLQFHGHEAPFRVK(COCH2)G; thioether 2-19 via Ac; not fully specified) [compound 210] | B (0.5 or more and less than 0.7) |
| 211 (HCSYERLQFHGHEAPFRVK(COCH2)L; thioether 2-19 via Ac; not fully specified) [compound 211] | A (0.7 or more) |
| 212 (HCSYERLQFHGHEAPFRVK(COCH2)I; thioether 2-19 via Ac; not fully specified) [compound 212] | A (0.7 or more) |
| 213 (HCSYERLQFHGHEAPFRVK(COCH2)Y; thioether 2-19 via Ac; not fully specified) [compound 213] | A (0.7 or more) |
| 214 (HCSYERLQFHGHEAPFRVK(COCH2)F; thioether 2-19 via Ac; not fully specified) [compound 214] | B (0.5 or more and less than 0.7) |
| 215 (HCSYERLQFHGHEAPFRVK(COCH2)W; thioether 2-19 via Ac; not fully specified) [compound 215] | B (0.5 or more and less than 0.7) |
| 216 (HCSYERLQFHGHEAPFRVK(COCH2)N; thioether 2-19 via Ac; not fully specified) [compound 216] | A (0.7 or more) |
| 217 (HCSYERLQFHGHEAPFRVK(COCH2)Q; thioether 2-19 via Ac; not fully specified) [compound 217] | A (0.7 or more) |
| 218 (HCSYERLQFHGHEAPFRVK(COCH2)S; thioether 2-19 via Ac; not fully specified) [compound 218] | A (0.7 or more) |
| 219 (HCSYERLQFHGHEAPFRVK(COCH2)T; thioether 2-19 via Ac; not fully specified) [compound 219] | A (0.7 or more) |
| 220 (HCSYERLQFHGHEAPFRVK(COCH2)D; thioether 2-19 (inferred)) [compound 220] | C (0.1 or more and less than 0.5) |
| 221 (HCSYERLQFHGHEAPFRVK(COCH2)E; thioether 2-19 (inferred)) [compound 221] | A (0.7 or more) |
| 222 (HCSYERLQFHGHEAPFRVK(COCH2)R; thioether 2-19 (inferred)) [compound 222] | A (0.7 or more) |
| 223 (HCSYERLQFHGHEAPFRVK(COCH2)H; thioether 2-19 (inferred)) [compound 223] | A (0.7 or more) |
| 224 (HK(COCH2)SYERLQFHGHEAPFRVCV; thioether 2-19 (inferred)) [compound 224] | B (0.5 or more and less than 0.7) |
| 225 (HCTWERLIFLGHIAPFWVK(COCH2)R; thioether 2-19 (inferred)) [compound 225] | C (0.1 or more and less than 0.5) |
| 226 (HK(COCH2)TWERLIFLGHIAPFWVCR; thioether 2-19 (inferred)) [compound 226] | B (0.5 or more and less than 0.7) |
| 227 (YK(COCH2)TWERLIFLGHIAPFWVCR; thioether 2-19 (inferred)) [compound 227] | C (0.1 or more and less than 0.5) |
| 228 (RK(COCH2)TWERLIFLGHIAPFWVCR; thioether 2-19 (inferred)) [compound 228] | C (0.1 or more and less than 0.5) |
| 229 (HK(COCH2)VWERLIFLGHIAPFWVCR; thioether 2-19 (inferred)) [compound 229] | B (0.5 or more and less than 0.7) |
| 230 (HK(COCH2)QWERLIFLGHIAPFWVCR; thioether 2-19 (inferred)) [compound 230] | B (0.5 or more and less than 0.7) |
| 231 (HK(COCH2)TFERLIFLGHIAPFWVCR; thioether 2-19 (inferred)) [compound 231] | B (0.5 or more and less than 0.7) |
| 232 (HK(COCH2)TYERLIFLGHIAPFWVCR; thioether 2-19 (inferred)) [compound 232] | B (0.5 or more and less than 0.7) |
| 233 (HK(COCH2)TWERLVFLGHIAPFWVCR; thioether 2-19 (inferred)) [compound 233] | B (0.5 or more and less than 0.7) |
| 234 (HK(COCH2)TWERLRFLGHIAPFWVCR; thioether 2-19 (inferred)) [compound 234] | A (0.7 or more) |
| 235 (HK(COCH2)TWERLIFRGHIAPFWVCR; thioether 2-19 (inferred)) [compound 235] | A (0.7 or more) |
| 236 (HK(COCH2)TWERLIFQGHIAPFWVCR; thioether 2-19 (inferred)) [compound 236] | A (0.7 or more) |
| 237 (HK(COCH2)TWERLIFLGHLAPFWVCR; thioether 2-19 (inferred)) [compound 237] | B (0.5 or more and less than 0.7) |

| Substance | Evaluation result of binding affinity to FGFR |
| --- | --- |
| 238 (HK(COCH2)TWERLIFLGHVAPFWVCR; thioether 2-19 (inferred)) [compound 238] | B (0.5 or more and less than 0.7) |
| 239 (HK(COCH2)TWERLIFLGHIAPFLVCR; thioether 2-19 (inferred)) [compound 239] | B (0.5 or more and less than 0.7) |
| 240 (HK(COCH2)TWERLIFLGHIAPFHVCR; thioether 2-19 (inferred)) [compound 240] | A (0.7 or more) |
| 241 (HK(COCH2)TWERLIFLGHIAPFWVCV; thioether 2-19 (inferred)) [compound 241] | B (0.5 or more and less than 0.7) |
| 242 (HK(COCH2)TWERLIFLGHIAPFWVCS; thioether 2-19 (inferred)) [compound 242] | A (0.7 or more) |
| 243 (LCRYVKLRVGLHIAPFLIK(COCH2)S; thioether 2-19 (inferred)) [compound 243] | C (0.1 or more and less than 0.5) |
| 244 (NCWGWAYPIPFRK(COCH2)V; thioether 2-13 (inferred)) [compound 244] | C (0.1 or more and less than 0.5) |
| 245 (WCQYVYLSHVAPFLVRK(COCH2)E; thioether 2-17 (inferred)) [compound 245] | C (0.1 or more and less than 0.5) |
| 246 (PCTYRQVVVHGWYAPFISK(COCH2)V; thioether 2-19 (inferred)) [compound 246] | C (0.1 or more and less than 0.5) |
| 247 (ACKYVPHIFQQHQAPYLVK(COCH2)S; thioether 2-19 (inferred)) [compound 247] | B (0.5 or more and less than 0.7) |
| 248 (QCWKRVRVYGFFAPFVHK(COCH2)I; thioether 2-18 (inferred)) [compound 248] | B (0.5 or more and less than 0.7) |
| 249 (RCWKVLKVLGHRAPFLIAK(COCH2)Y; thioether 2-19 (inferred)) [compound 249] | C (0.1 or more and less than 0.5) |
| 250 (QCLWAQLQLLTHLAPYIVK(COCH2)I; thioether 2-19 (inferred)) [compound 250] | C (0.1 or more and less than 0.5) |
| 251 (DCIWRVTISGHLAPFWFK(COCH2)Y; thioether 2-18 (inferred)) [compound 251] | B (0.5 or more and less than 0.7) |
| 252 (LCRVVLNGWIAPFWTIK(COCH2)E; thioether 2-17 (inferred)) [compound 252] | B (0.5 or more and less than 0.7) |
| 253 (ICWTQLVLDGLYAPFLHK(COCH2)S; thioether 2-18 (inferred)) [compound 253] | C (0.1 or more and less than 0.5) |
| 254 (WCQLRFQGHLAPFIILK(COCH2)H; thioether 2-17 (inferred)) [compound 254] | C (0.1 or more and less than 0.5) |
| 255 (RCWRQIRYGQLLAPFLVK(COCH2)Q; thioether 2-18 (inferred)) [compound 255] | C (0.1 or more and less than 0.5) |
| 256 (NCWGYHYTIPFIK(COCH2)F; thioether 2-13 (inferred)) [compound 256] | B (0.5 or more and less than 0.7) |
| 257 (VCPLTLQGWQAPFWVVK(COCH2)E; thioether 2-17 (inferred)) [compound 257] | C (0.1 or more and less than 0.5) |
| 258 (ECYHKLIFLGWEAPFWHK(COCH2)E; thioether 2-18 (inferred)) [compound 258] | A (0.7 or more) |
| 259 (GCRPVVTHHPWAPFWVVTK(COCH2)E; thioether 2-19 (inferred)) [compound 259] | B (0.5 or more and less than 0.7) |
| 260 (ECVLQRLFFEGHLAPFILK(COCH2)I; thioether 2-19 (inferred)) [compound 260] | B (0.5 or more and less than 0.7) |
| 261 (QCQWNIYRHQWAPFWVIEK(COCH2)S; thioether 2-19 (inferred)) [compound 261] | C (0.1 or more and less than 0.5) |
| 262 (FCYQRLYFQGHIAPYWFVK(COCH2)D; thioether 2-19 (inferred)) [compound 262] | B (0.5 or more and less than 0.7) |
| 263 (ICRLSWFGFKAPFWIVDSK(COCH2)Q; thioether 2-19 (inferred)) [compound 263] | B (0.5 or more and less than 0.7) |
| 264 (ACQWGRWALQGHQVPFLTK(COCH2)I; thioether 2-19 (inferred)) [compound 264] | A (0.7 or more) |
